# Assay results from PubChem BioAssay (NCI).
#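 These data come from cells grown in 96-well plates and exposed to compound for 48 hours at five concentrations. The concentration for 50% growth inhibition is given as GI50. TGI: concentration producing complete growth inhibition.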
# What was measured:
# Assay in all cases: NCI anticancer screen, dose series, 48 h
# [1] = system: 786-0 renal
# [2] = system: A498 renal
# [3] = system: A549 NSCLC
# [4] = system: ACHN renal
# [5] = system: BT-549 breast
# [6] = system: CAKI-1 renal
# [7] = system: CCRF-CEM leukemia
# [8] = system: COLO 205 colon
# [9] = system: DU-145 prostate
# [10] = system: EKVX NSCLC
# [11] = system: HCC-2998 colon
# [12] = system: HCT-116 colon
# [13] = system: HCT-15 colon
# [14] = system: HL-60(TB) leukemia
# [15] = system: HOP-62 NSCLC
# [16] = system: HOP-92 NSCLC
# [17] = system: HS 578T breast
# [18] = system: HT29 colon
# [19] = system: IGROV1 ovarian
# [20] = system: K-562 leukemia
# [21] = system: KM12 colon
# [22] = system: LOX IMVI melanoma
# [23] = system: M14 melanoma
# [24] = system: MALME-3M melanoma
# [25] = system: MCF7 breast
# [26] = system: MDA-MB-231 breast
# [27] = system: MDA-MB-435
# [28] = system: MOLT-4 leukemia
# [29] = system: NCI-H226 lung
# [30] = system: NCI-H23 lung
# [31] = system: NCI-H460 lung
# [32] = system: NCI-H522 lung
# [33] = system: NCI/ADR-RES ovarian
# [34] = system: OVCAR-3 ovarian
# [35] = system: OVCAR-4 ovarian
# [36] = system: OVCAR-5 ovarian
# [37] = system: OVCAR-8 ovarian
# [38] = system: PC-3 prostate
# [39] = system: RPMI-8226 leukemia
# [40] = system: RXF 393 renal
# [41] = system: SF-268 CNS
# [42] = system: SF-295 CNS
# [43] = system: SF-539 CNS
# [44] = system: SK-MEL-2 melanoma
# [45] = system: SK-MEL-28 melanoma
# [46] = system: SK-MEL-5 melanoma
# [47] = system: SK-OV-3 ovarian
# [48] = system: SN12C renal
# [49] = system: SNB-19 CNS
# [50] = system: SNB-75 CNS
# [51] = system: SR leukemia
# [52] = system: SW-620 colon
# [53] = system: T-47D breast
# [54] = system: TK-10 renal
# [55] = system: U251 CNS
# [56] = system: UACC-257 melanoma
# [57] = system: UACC-62 melanoma
# [58] = system: UO-31 renal
compound,measurement,setting,value
C#CCN(C)CCCOc1ccc(NCc2ccc(/C=C/C(=O)NO)cc2)cc1Cl,GI50,[1],1.13 µM
same,TGI,[1],2.75 µM
same,GI50,[2],0.417 µM
same,TGI,[2],1.73 µM
same,GI50,[3],0.528 µM
same,TGI,[3],2.54 µM
same,GI50,[4],0.379 µM
same,TGI,[4],1.69 µM
same,GI50,[5],1.37 µM
same,TGI,[5],6.09 µM
same,GI50,[6],0.544 µM
same,TGI,[6],2.21 µM
same,GI50,[7],0.264 µM
same,TGI,[7],> 100 µM
same,GI50,[8],0.374 µM
same,TGI,[8],1.92 µM
same,GI50,[9],0.412 µM
same,TGI,[9],5.28 µM
same,GI50,[10],0.954 µM
same,TGI,[10],6.8 µM
same,GI50,[11],0.382 µM
same,TGI,[11],1.91 µM
same,GI50,[12],0.274 µM
same,TGI,[12],1.7 µM
same,GI50,[13],0.512 µM
same,TGI,[13],4.6 µM
same,GI50,[14],0.331 µM
same,TGI,[14],17.3 µM
same,GI50,[15],0.601 µM
same,TGI,[15],3.24 µM
same,GI50,[16],0.34 µM
same,TGI,[16],1.41 µM
same,GI50,[17],0.582 µM
same,TGI,[17],6.22 µM
same,GI50,[18],0.345 µM
same,TGI,[18],4.77 µM
same,GI50,[19],0.361 µM
same,TGI,[19],1.57 µM
same,GI50,[20],0.297 µM
same,TGI,[20],> 100 µM
same,GI50,[21],1.02 µM
same,TGI,[21],6.8 µM
same,GI50,[22],0.475 µM
same,TGI,[22],1.36 µM
same,GI50,[23],0.465 µM
same,TGI,[23],2.1 µM
same,GI50,[24],0.242 µM
same,TGI,[24],1.59 µM
same,GI50,[25],0.421 µM
same,TGI,[25],11.8 µM
same,GI50,[26],0.502 µM
same,TGI,[26],4.5 µM
same,GI50,[27],0.33 µM
same,TGI,[27],1.28 µM
same,GI50,[28],0.33 µM
same,TGI,[28],17.1 µM
same,GI50,[29],1.49 µM
same,TGI,[29],4.17 µM
same,GI50,[30],0.814 µM
same,TGI,[30],2.66 µM
same,GI50,[31],0.43 µM
same,TGI,[31],3.21 µM
same,GI50,[32],0.407 µM
same,TGI,[32],2.58 µM
same,GI50,[33],0.295 µM
same,TGI,[33],5.35 µM
same,GI50,[34],0.478 µM
same,TGI,[34],2.49 µM
same,GI50,[35],1.4 µM
same,TGI,[35],19.4 µM
same,GI50,[36],0.33 µM
same,TGI,[36],2.67 µM
same,GI50,[37],0.369 µM
same,TGI,[37],> 48.3 µM
same,GI50,[38],0.509 µM
same,TGI,[38],6.85 µM
same,GI50,[39],0.316 µM
same,TGI,[39],2.82 µM
same,GI50,[40],0.249 µM
same,TGI,[40],0.799 µM
same,GI50,[41],1.36 µM
same,TGI,[41],4.65 µM
same,GI50,[42],0.634 µM
same,TGI,[42],2.03 µM
same,GI50,[43],0.717 µM
same,TGI,[43],2.9 µM
same,GI50,[44],2.05 µM
same,TGI,[44],6.61 µM
same,GI50,[45],0.485 µM
same,TGI,[45],1.92 µM
same,GI50,[46],0.373 µM
same,TGI,[46],1.34 µM
same,GI50,[47],0.645 µM
same,TGI,[47],2.99 µM
same,GI50,[48],1.05 µM
same,TGI,[48],7.34 µM
same,GI50,[49],1.03 µM
same,TGI,[49],4.06 µM
same,GI50,[50],0.474 µM
same,TGI,[50],2.92 µM
same,GI50,[51],0.36 µM
same,TGI,[51],> 100 µM
same,GI50,[52],0.235 µM
same,TGI,[52],0.856 µM
same,GI50,[53],0.338 µM
same,TGI,[53],> 31 µM
same,GI50,[54],0.387 µM
same,TGI,[54],3.29 µM
same,GI50,[55],0.502 µM
same,TGI,[55],2.42 µM
same,GI50,[56],0.419 µM
same,TGI,[56],18.2 µM
same,GI50,[57],0.367 µM
same,TGI,[57],1.9 µM
same,GI50,[58],0.299 µM
same,TGI,[58],1.55 µM
